Laboratory results reported in ChEMBL document CHEMBL1131909, “Synthesis and biological activities of position one and three transposed analogs of the opioid peptide YKFA” (Bioorg Med Chem Lett, 1999).

Legend:
Mu-type opioid receptor [1] = target: T1, Mu-type opioid receptor (Cavia porcellus, UniProt P97266); assay: Compound was tested for moderate potency against mu opioid receptor in guinea pig ileum; type: tissue-based
Mu-type opioid receptor [2] = target: T1, Mu-type opioid receptor; assay: In vitro mu opioid activity was determined by its ability to inhibit the electrically induced contractions of smooth muscle preparations in guinea pig ileum (GPI); type: functional, tissue-based
[3] = target: Delta-type opioid receptor (Mus musculus, UniProt P32300); assay: In vitro delta opioid activity was determined by its ability to inhibit the electrically induced contractions of smooth muscle preparations in mouse vas deferens (MVD); type: functional, tissue-based
Sequence of Delta-type opioid receptor (P32300 whole entry): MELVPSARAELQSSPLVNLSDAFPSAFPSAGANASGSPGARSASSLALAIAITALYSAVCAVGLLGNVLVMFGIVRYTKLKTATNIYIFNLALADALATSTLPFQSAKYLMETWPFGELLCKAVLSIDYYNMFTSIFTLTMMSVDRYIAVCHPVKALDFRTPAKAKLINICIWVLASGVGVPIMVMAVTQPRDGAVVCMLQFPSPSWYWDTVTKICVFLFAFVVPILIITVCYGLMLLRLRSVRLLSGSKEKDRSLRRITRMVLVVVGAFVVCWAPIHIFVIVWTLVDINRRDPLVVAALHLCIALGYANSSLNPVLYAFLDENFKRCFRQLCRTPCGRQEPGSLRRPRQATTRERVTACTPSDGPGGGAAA

Mu-type opioid receptor [4] = target: Mu-type opioid receptor (Homo sapiens, UniProt P35372); assay: Compound was tested for binding affinity against mu opioid receptor binding assay
Sequence of Mu-type opioid receptor (Homo sapiens, UniProt P35372) (P35372 whole entry): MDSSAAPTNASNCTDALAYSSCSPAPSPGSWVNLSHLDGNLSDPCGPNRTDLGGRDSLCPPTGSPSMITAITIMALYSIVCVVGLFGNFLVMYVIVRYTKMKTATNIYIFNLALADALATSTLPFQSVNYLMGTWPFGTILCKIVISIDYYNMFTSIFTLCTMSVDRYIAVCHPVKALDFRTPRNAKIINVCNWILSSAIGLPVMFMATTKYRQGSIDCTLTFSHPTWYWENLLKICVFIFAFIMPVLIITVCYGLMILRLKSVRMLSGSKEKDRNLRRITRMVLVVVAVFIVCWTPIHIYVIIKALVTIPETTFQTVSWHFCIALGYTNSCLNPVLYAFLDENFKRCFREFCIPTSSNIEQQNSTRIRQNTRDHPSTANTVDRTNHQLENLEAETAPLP

Mu-type opioid receptor [5] = target: T1, Mu-type opioid receptor; assay: Compound was tested for its ability to activate mu opioid receptor in GPI bioassay

T1 sequence (P97266 whole entry): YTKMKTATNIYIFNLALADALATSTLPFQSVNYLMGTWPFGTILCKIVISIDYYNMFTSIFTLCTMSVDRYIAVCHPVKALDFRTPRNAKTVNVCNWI

Row | SMILES | IC50 (Mu-type opioid receptor [2]) | IC50 [3] | also measured
1 | NC(=O)[C@H]1CSSC[C@@H](NC(=O)[C@@H](N)Cc2ccccc2)C(=O)NCC(=O)N[C@@H](Cc2ccc([N+](=O)[O-])cc2)C(=O)N1 |  |  | IC50 (Mu-type opioid receptor [1]): 13 nM
2 | N[C@@H](Cc1ccccc1)C(=O)N[C@@H]1CCCCNC(=O)[C@H](Cc2cc3ccccc3[nH]2)NC(=O)[C@H](Cc2ccc(O)cc2)NC1=O | 17.7 nM | 228 nM | 
3 | N[C@H](Cc1ccccc1)C(=O)N[C@@H]1CCCCNC(=O)[C@H](Cc2cc3ccccc3[nH]2)NC(=O)[C@H](Cc2ccc(O)cc2)NC1=O | 627 nM | 8130 nM | 
4 | CC1(C)SSC[C@@H](NC(=O)[C@@H](N)Cc2ccccc2)C(=O)N[C@@H](Cc2ccccc2)C(=O)N[C@H]1C(N)=O |  |  | Ki (Mu-type opioid receptor [4]): 13.6 nM; IC50 (Mu-type opioid receptor [5]): 9.1 nM
5 | CC1(C)SSC[C@@H](NC(=O)[C@@H](N)Cc2ccc(O)cc2)C(=O)N[C@@H](Cc2ccccc2)C(=O)N[C@H]1C(N)=O |  |  | Ki (Mu-type opioid receptor [4]): 0.29 nM
6 | NC(=O)[C@H]1CSSC[C@@H](NC(=O)[C@@H](N)Cc2ccccc2)C(=O)NCC(=O)N[C@@H](Cc2ccccc2)C(=O)N1 |  |  | IC50 (Mu-type opioid receptor [1]): 42 nM
7 | CC1NC(=O)[C@H](Cc2ccc(O)cc2)NC(=O)[C@H](NC(=O)[C@@H](N)Cc2ccccc2)CCCCNC1=O (single isomer, unassigned) | 30.4 nM | 367 nM | 
8 | CC1NC(=O)[C@H](Cc2ccc(O)cc2)NC(=O)[C@H](NC(=O)[C@H](N)Cc2ccccc2)CCCCNC1=O (single isomer, unassigned) | 1830 nM | 9330 nM | 
9 | CC1NC(=O)[C@H](Cc2ccccc2)NC(=O)[C@H](NC(=O)[C@@H](N)Cc2ccc(O)cc2)CCCCNC1=O (single isomer, unassigned) | 0.11 nM | 0.54 nM | 
